Test results as given in publication PMC6147116 (Journal of Enzyme Inhibition and Medicinal Chemistry, 2018).
Where two headings read alike, the source gives them in different places.

Experiments:
human aromatase = target: T1, human aromatase (Homo sapiens, UniProt P11511); experiment: Aromatase inhibition, in vitro radiosubstrate incubation (testosterone to E2 conversion), human placental microsomes; assay type: biochemical; settings: for remaining activity at 10 µM: read-out: Arom Rel.conv. ± SD
T1 construct: from tissue; host or cells: human term placenta, microsomal fraction
T1 sequence (P11511 1-503): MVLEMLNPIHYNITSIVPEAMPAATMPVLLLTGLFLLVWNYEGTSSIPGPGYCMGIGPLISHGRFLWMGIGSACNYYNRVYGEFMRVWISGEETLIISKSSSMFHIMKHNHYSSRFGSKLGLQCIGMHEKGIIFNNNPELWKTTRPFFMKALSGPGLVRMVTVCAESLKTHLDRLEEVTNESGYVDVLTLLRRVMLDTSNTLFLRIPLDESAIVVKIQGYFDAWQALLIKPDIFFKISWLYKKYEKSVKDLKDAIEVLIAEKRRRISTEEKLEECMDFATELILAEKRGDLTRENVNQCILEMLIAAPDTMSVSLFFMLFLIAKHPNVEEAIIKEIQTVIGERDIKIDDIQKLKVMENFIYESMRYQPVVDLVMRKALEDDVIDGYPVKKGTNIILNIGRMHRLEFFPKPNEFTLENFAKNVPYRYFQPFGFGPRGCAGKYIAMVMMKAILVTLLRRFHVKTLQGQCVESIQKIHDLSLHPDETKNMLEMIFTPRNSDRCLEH
Method: (§1) Enzyme inhibition studies were performed by in vitro radiosubstrate incubations using human term placenta cytosol and microsomas as enzyme sources. […] Relative conversions compared to non-inhibited controls (100%) were measured in the presence of 10 µM concentration of the test compound. […] Mechanistic and kinetic investigations were performed and inhibitory constants (Ki) were determined for selected compounds.
(§2) Enzymatic incubations were carried out in the HEPES buffer medium at a final volume of 200
(§3) µl. The substrate was added to the incubate in 20 µl of a 25 v/v% propylene glycol in HEPES buffer solution, whereas test compounds were applied in 10 µl of dimethyl sulfoxide solution.
Incubations were performed at 37 °C and terminated by cooling and the addition of organic solvents of the subsequent extraction procedure. Control samples with no inhibitor and blank samples were incubated simultaneously. The radioactivity of the products formed was measured by means of liquid scintillation counting (LSC) and taken as indicator of the […]
In the aromatase assays the microsoma suspension was incubated with appropriate concentration of unlabelled testosterone (2) substrate spiked with [1,2,6,7-3H]testosterone tracer, and in the presence of 0.1 mM NADPH cofactor excess. (In this case, solution of the substrate was prepared with acetonitrile instead of propylene glycol.) Incubation time was 40 min. The incubation mixture was extracted with toluene, then the toluene phase was drained and washed with HEPES buffer. Aromatase products containing phenolic hydroxy group were extracted with 1.2 M sodium hydroxide solution from the toluene extract and the alkaline phase was measured in the LSC. […]
was extracted with toluene. […]
(§4) In the general procedure, incubations were performed as described. Concentrations of the substrates were 1.0 µM, and the test compounds were applied at 10 µM final concentration in the incubate. Relative conversions compared to non-inhibited controls (100%) were determined. The assays were performed in triplicate, and the mean value and the standard deviation (SD) were calculated. […]
(§5) these cases, conversions were measured at 10–15 different concentrations in the appropriate interval between 0.001–50 µM. IC50 results were calculated by using unweighted iterative least squares logistic curve fitting by means of the “absolute IC50 calculation“ function of the GraphPad Prism 4.0 software (GraphPad Software, Inc., San Diego, CA, USA).
Kinetic analyses were performed via measurement of the enzymatic transformation using different fixed substrate concentrations and varied inhibitor concentrations. The Dixon’s linear transformation (1/velocity vs. inhibitor concentration) was applied for evaluation and the inhibition constant (Ki) was determined from abscissa of intersection of the lines of different substrate concentrations. Mechanism of binding was identified according to the […]

steroid sulfatase (STS) = target: T2, steroid sulfatase (STS) (Homo sapiens, UniProt P08842); experiment: STS inhibition, in vitro radiosubstrate incubation (release of E1 from E1S), human placental microsomes; Dixon kinetic analysis; assay type: biochemical; settings: for remaining activity at 10 µM: read-out: STS Rel.conv. ± SD
T2 construct: from tissue; host or cells: human term placenta, microsomal fraction
T2 sequence (P08842 22-583): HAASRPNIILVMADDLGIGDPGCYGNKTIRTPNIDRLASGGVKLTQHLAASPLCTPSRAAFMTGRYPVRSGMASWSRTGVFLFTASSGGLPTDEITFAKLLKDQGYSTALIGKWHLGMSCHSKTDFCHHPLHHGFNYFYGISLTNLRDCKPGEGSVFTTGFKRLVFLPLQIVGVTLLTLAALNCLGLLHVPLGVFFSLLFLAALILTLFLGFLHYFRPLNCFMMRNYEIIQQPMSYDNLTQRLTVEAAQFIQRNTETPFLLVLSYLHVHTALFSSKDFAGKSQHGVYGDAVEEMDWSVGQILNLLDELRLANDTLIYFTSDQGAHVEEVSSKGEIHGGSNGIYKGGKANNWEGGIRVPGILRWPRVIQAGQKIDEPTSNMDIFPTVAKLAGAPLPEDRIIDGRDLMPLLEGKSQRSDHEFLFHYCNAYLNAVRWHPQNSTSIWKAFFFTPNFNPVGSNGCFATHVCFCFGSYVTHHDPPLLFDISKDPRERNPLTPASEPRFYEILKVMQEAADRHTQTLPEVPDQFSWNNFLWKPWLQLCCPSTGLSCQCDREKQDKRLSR
Method: as §1
Kinetic analyses of selected compounds 7a and 16c were performed by measurement of enzyme activities using different fixed substrate concentrations and varied inhibitor concentrations.
as §2, §3
(§6) Incubations were performed at 37 °C and terminated by cooling and the addition of organic solvents of the subsequent extraction procedure. Control samples with no inhibitor and blank samples were incubated simultaneously. […]
The incubation time was 2.5 min. […]
as §4, §5
(§7) Kinetic analyses were performed via measurement of the enzymatic transformation using different fixed substrate concentrations and varied inhibitor concentrations. The Dixon’s linear transformation (1/velocity vs. inhibitor concentration) was applied for evaluation and the inhibition constant (Ki) was determined from abscissa of intersection of the lines of different substrate concentrations. Mechanism of binding was identified according to the Dixon’s graphs and the secondary plot of slopes of the Dixon’s lines vs. 1/substrate […]
The inhibitor compounds were preincubated with the appropriate placenta fraction in a volume of 4.0 µl at 37 °C for various time periods (2.5-40 min). Following this procedure, […]

[1] = target: T3, 17β-hydroxysteroid dehydrogenase type 1 (17β-HSD1) (Homo sapiens, UniProt P14061); experiment: 17β-HSD1 inhibition, in vitro radiosubstrate incubation (E1 to E2), human placental cytosol; Dixon kinetic analysis; assay type: biochemical; settings: for IC50: E1 substrate 1.0 µM, NADPH excess; for 17β-HSD1 Rel.conv. ± SD: 10 µM test compound, non-inhibited control 100%, mean ± SD, n = 3
T3 sequence (P14061 1-328): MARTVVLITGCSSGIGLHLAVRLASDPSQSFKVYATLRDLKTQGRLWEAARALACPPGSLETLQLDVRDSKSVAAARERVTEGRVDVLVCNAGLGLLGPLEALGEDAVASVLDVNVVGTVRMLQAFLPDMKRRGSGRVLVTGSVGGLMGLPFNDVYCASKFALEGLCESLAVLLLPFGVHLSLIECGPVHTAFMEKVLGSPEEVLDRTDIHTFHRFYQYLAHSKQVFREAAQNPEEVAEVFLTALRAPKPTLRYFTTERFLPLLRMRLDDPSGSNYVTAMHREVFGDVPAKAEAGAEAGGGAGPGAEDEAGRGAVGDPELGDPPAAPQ
Method: as §1
Inhibitors that bind to the steroid site of 17β-HSD1 can bind to both the free enzyme and the binary enzyme–cofactor complex by random kinetic mechanism.
as §2, §3, §6
The incubation time was 2.5 min. The product 17β-estradiol (E2, 5) was extracted with ethyl acetate and isolated by a TLC method (details are published in our earlier reference).
as §4, §5, §7
The inhibitor compounds were preincubated with the appropriate placenta fraction in a volume of 4.0 µl at 37 °C for various time periods (2.5-40 min). Following this procedure, samples were diluted with the incubation medium to 50-fold. Enzyme activity measurements

[2] = target: T3, 17β-hydroxysteroid dehydrogenase type 1 (17β-HSD1); settings: earlier paper of the authors; read-out: 17β-HSD1 IC50 ± SD; cited from earlier work
aromatase enzyme = target: aromatase enzyme; design: method as in PMID 16039845; settings: cited from earlier work
[3] = 10 µM test compound, non-inhibited control 100%, mean ± SD, n = 3
[4] = E1S substrate 1.0 µM, read-out: STS IC50 ± SD

**Q.** With `C[C@@]12CC[C@@H]3c4cc(Cl)c(O)c(Cl)c4CC[C@H]3[C@@H]1CCC2=O` [12c] as the compound, how does the remaining activity at 10 µM (human aromatase) read?
**A.** 101 ± 4%

**Q.** What about the remaining activity at 10 µM (steroid sulfatase (STS)) of the same compound?
**A.** 70 ± 3%

**Q.** What about the IC50 ([1]; 17β-HSD1 IC50 ± SD) of the same compound?
**A.** 2.2 ± 0.6 µM

**Q.** Which results are given for `C[C@@]12CC[C@@H]3c4ccc(O)c(Cl)c4CC[C@H]3[C@@H]1CCC2=O` [11c]?
**A.** remaining activity at 10 µM (human aromatase): 98 ± 3%; remaining activity at 10 µM (steroid sulfatase (STS)): 80 ± 7%; IC50 ([1]; 17β-HSD1 IC50 ± SD): 2.6 ± 1 µM

**Q.** Which remaining activity at 10 µM (human aromatase; [3]) does the source give for `C[C@]12CCC[C@H]1[C@@H]1CCc3c(ccc(O)c3Cl)[C@H]1CC2` [15c] here?
**A.** 89 ± 1%

**Q.** And the IC50 (steroid sulfatase (STS); [4])?
**A.** 6.3 ± 1.8 µM

**Q.** And the IC50 ([1]; read-out: 17β-HSD1 IC50 ± SD)?
**A.** 4.5 ± 2 µM

**Q.** Which results are given for `C[C@]12CC[C@@H]3c4cc(Cl)c(O)c(Cl)c4CC[C@H]3[C@@H]1CCC2=O` [8c]?
**A.** remaining activity at 10 µM (human aromatase): 82 ± 4%; IC50 (steroid sulfatase (STS)): 3 ± 0.9 µM; IC50 ([1]; 17β-HSD1 IC50 ± SD): 0.59 ± 0.16 µM

**Q.** Which remaining activity at 10 µM (human aromatase; [3]) does the source give for `C[C@]12CCC[C@H]1[C@@H]1CCc3c(cc(I)c(O)c3I)[C@H]1CC2` [16a] here?
**A.** 94 ± 2%

**Q.** What about the remaining activity at 10 µM (steroid sulfatase (STS); [3]) of the same compound?
**A.** 59 ± 13%

**Q.** And the “17β-HSD1 Rel.conv. ± SD” value [1]?
**A.** 61 ± 7%

**Q.** Which remaining activity at 10 µM (human aromatase; [3]) does the source give for `C[C@@]12CC[C@@H]3c4cc(I)c(O)cc4CC[C@H]3[C@@H]1CCC2=O` [10a] here?
**A.** 82 ± 10%

**Q.** What about the remaining activity at 10 µM (steroid sulfatase (STS); [3]) of the same compound?
**A.** 83 ± 3%

**Q.** And the IC50 [2]?
**A.** 0.59 ± 0.23 µM

**Q.** What does the source list for `C[C@@]12CC[C@@H]3c4ccc(O)cc4CC[C@H]3[C@@H]1CCC2=O` [compound 9, 13α-Estrone]?
**A.** remaining activity at 10 µM (human aromatase; [3]): 85 ± 13%; remaining activity at 10 µM (steroid sulfatase (STS); [3]): 96 ± 1%

**Q.** Which remaining activity at 10 µM (human aromatase; [3]) does the source give for `C[C@]12CC[C@@H]3c4ccc(O)c(Br)c4CC[C@H]3[C@@H]1CCC2=O` [7b, 4-bromoestrone] here?
**A.** 91 ± 6%

**Q.** And the IC50 (steroid sulfatase (STS); [4])?
**A.** 0.89 ± 0.3 µM

**Q.** What about the IC50 ([1]; read-out: 17β-HSD1 IC50 ± SD) of the same compound?
**A.** 0.3 ± 0.2 µM

**Q.** Which results are given for `C[C@@]12CC[C@@H]3c4cc(Br)c(O)cc4CC[C@H]3[C@@H]1CCC2=O` [10b]?
**A.** remaining activity at 10 µM (human aromatase; [3]): 100 ± 5%; remaining activity at 10 µM (steroid sulfatase (STS); [3]): 81 ± 6%; IC50 [2]: 1.2 ± 0.3 µM

**Q.** Which IC50 (human aromatase) does the source give for `C[C@]12CC[C@@H]3c4ccc(O)cc4CC[C@H]3[C@@H]1CCC2=O` [E1 (4), estrone, reference compound] here?
**A.** > 10 µM

**Q.** And the remaining activity at 10 µM (human aromatase; [3])?
**A.** 78%

**Q.** What about the IC50 (steroid sulfatase (STS)) of the same compound?
**A.** 24 ± 10 µM

**Q.** What about the Ki (aromatase enzyme) of the same compound?
**A.** 2.5 µM

**Q.** Which remaining activity at 10 µM (human aromatase; [3]) does the source give for `C[C@]12CCC[C@H]1[C@@H]1CCc3c(ccc(O)c3Br)[C@H]1CC2` [15b] here?
**A.** 90 ± 8%

**Q.** And the IC50 (steroid sulfatase (STS); [4])?
**A.** 3.7 ± 1.2 µM

**Q.** And the “17β-HSD1 Rel.conv. ± SD” value [1]?
**A.** 49 ± 12%

**Q.** And the IC50 ([1]; read-out: 17β-HSD1 IC50 ± SD)?
**A.** 11 ± 4 µM

**Q.** With `C[C@]12CCC[C@H]1[C@@H]1CCc3c(ccc(O)c3I)[C@H]1CC2` [15a] as the compound, how does the remaining activity at 10 µM (human aromatase; [3]) read?
**A.** 92 ± 7%

**Q.** What about the IC50 (steroid sulfatase (STS); [4]) of the same compound?
**A.** 2.7 ± 1.3 µM

**Q.** What about the “17β-HSD1 Rel.conv. ± SD” value [1] of the same compound?
**A.** 57 ± 9%
